The values below come from patent US6670145B2, “Method for detection of total coliforms and E. coli” (The United States of America as represented by the …, priority 1991, dated 2003).

The subject of one assay is total coliform colonies. Briefly: Other β-galactosidase substrates tested with IBDG in the selective base medium. The conditions noted are these: β-galactosidase substrate tested with IBDG in selective base medium. It is filed as cell-based, total coliforms. An excerpt:
(§1) The selective base medium without the substrates MUGal and IBDG (with or without agar) can be used with other β-galactosidase and β-glucuronidase substrates for the detection of total coliforms and/or E. coli. For example, each of three other β-galactosidase substrates (2-Nitrophenyl-β-D-galactopyranoside, Chlorophenol Red-β-galactopyranoside, and Resorufin-β-D-Galactopyranoside) have been tested with IBDG in this lab. […] We believe other combinations of substrates in this base medium would also work in the various embodiments described in this document, and different enzyme substrates (other than β-galactosidase and β-glucuronidase substrates) for specific coliforms could be used in this base medium because of its selectivity. The following guidance is provided for choosing ingredients for the alternative embodiments.

The subject of assay [1] is Escherichia coli (ATCC 25922). Briefly: Confirmatory spot test with enzyme substrates. More on the design: key to Reactions in Wells Containing: MUGal (fluorescence): +: A positive reaction is shown by fluorescence of the well under long wave ultraviolet light; key to Reactions in Wells Containing: IBDG (blue color): +: A positive reaction is shown by production of a blue color in the well. The conditions noted are these: 35° C., up to 24 hours. Format: cell-based. The procedure: (§2) One hundred microliter volumes of a bacterial suspension were placed in three wells of a sterile porcelain spot test plate or other suitable plate with wells. The bacterial suspension was obtained in one of the following ways:
(§3) 1. A loopful of bacterial growth from a slant or an isolated colony from an agar plate was emulsified in a small amount of the liquid MI broth medium without substrates or other non-selective broths.
(§4) 2. Aliquots of 100 μl of a bacterial culture grown over-night at 35° C. in a non-selective broth or the liquid medium without substrates were used.
(§5) Sixty microliters of a freshly-prepared, filter-sterilized 16 mg/ml IBDG solution was added to one well of bacterial suspension, and 300 μl of a freshly-prepared, filter-sterilized 1 mg/ml MUGal solution was added to a second well. The third well, containing only bacterial suspension (negative control), was used as a comparator to distinguish positive and negative wells. Additional wells were inoculated with uninoculated medium, IBDG, and MUGal as controls. The plates were covered with sterile foil and incubated at 35° C. for up to 24 hours. […] This test could also be performed by adding all of the test liquids and culture or sample to a piece of filter paper or to an absorbent pad and observing the reactions.

The test system of assay [2] is Escherichia coli (EPA 206). The assay can be described thus: Confirmatory spot test with enzyme substrates. It is filed as cell-based. More on the design: key to Reactions in Wells Containing: MUGal (fluorescence): +: A positive reaction is shown by fluorescence of the well under long wave ultraviolet light; key to Reactions in Wells Containing: IBDG (blue color): +: A positive reaction is shown by production of a blue color in the well. The following applies: 35° C., up to 24 hours. The procedure: as §2, §3, §4, §5

The test system of the next assay is E. coli colonies. The assay can be described thus: Other β-galactosidase substrates tested with IBDG in the selective base medium. Format: cell-based. The following applies: IBDG with each of three other β-galactosidase substrates in selective base medium.
Source text: as §1

In assay [3] the test system is Enterobacter aerogenes (EPA 202). Briefly: Confirmatory spot test with enzyme substrates. The conditions noted are these: 35° C., up to 24 hours, UV 366 nm. Format: cell-based. More on the design: key: +: A positive reaction is shown by fluorescence of the well under long wave ultraviolet light. The procedure:
as §2, §3, §4, §5

The test system of assay [4] is Klebsiella pneumoniae (EPA 207). Briefly: Confirmatory spot test with enzyme substrates. The arrangement: key: +: A positive reaction is shown by fluorescence of the well under long wave ultraviolet light. The conditions noted are these: 35° C., up to 24 hours, UV 366 nm. Format: cell-based. The procedure:
as §2, §3, §4, §5

Structures are written as SMILES. Structures can show the parent of a compound that is named as a salt.

With `O=S1(=O)OC(c2ccc(O)c(Cl)c2)(c2ccc(O[C@@H]3O[C@H](CO)[C@H](O)[C@H](O)[C@H]3O)c(Cl)c2)c2ccccc21` (stereo partly drawn) [Chlorophenol Red-β-galactopyranoside], in the assay with total coliform colonies, the “colors of the total coliform colonies” value is “orchid”.

Take `O=[N+]([O-])c1ccccc1O[C@@H]1O[C@H](CO)[C@H](O)[C@H](O)[C@H]1O` [2-Nitrophenyl-β-D-galactopyranoside]: the “colors of the total coliform colonies” value with total coliform colonies is “yellow”.

Turning to `O=C(O)[C@H]1O[C@@H](Oc2c[nH]c3ccccc23)[C@H](O)[C@@H](O)[C@@H]1O` [IBDG, Indoxyl-Beta-D-glucuronide, sodium salt or cyclohexylammonium salt], the “Reactions in Wells Containing: IBDG (blue color)” value in assay [1] and in assay [2] was “+” in each case. Moreover, in the assay on E. coli colonies, the “color of the E. coli colonies” value is “varying shades of blue”.

For the compound `Cc1cc(=O)oc2cc(O[C@@H]3O[C@H](CO)[C@H](O)[C@H](O)[C@H]3O)ccc12` [MUGal, 4-Methylumbelliferyl-Beta-D-galactopyranoside], the “Reactions in Wells Containing: MUGal (fluorescence)” value in assay [1] (UV 366 nm), in assay [2] (UV 366 nm), in assay [3] and in assay [4] was “+” throughout.

As to `O=c1ccc2nc3ccc(O[C@@H]4O[C@H](CO)[C@H](O)[C@H](O)[C@H]4O)cc3oc-2c1` [Resorufin-β-D-Galactopyranoside], the “colors of the total coliform colonies” value in the assay on total coliform colonies was “pink-red”.
